In PubChem BioAssay (NCI):
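Where inhibition never reached the appropriate level, the endpoint shown equals the highest concentration tested. Otherwise, values were interpolated linearly from a five-concentration, 48-hour dose response in 96-well plates. GI50: concentration for 50% inhibition of growth. At the TGI there is no net growth.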

What was measured:
Experiment in all cases: NCI tumour cell line growth inhibition, 48 h
A498 renal = system: A498 renal
BT-549 breast = system: BT-549 breast
COLO 205 colon = system: COLO 205 colon
NCI/ADR-RES ovarian = system: NCI/ADR-RES ovarian
SK-MEL-5 melanoma = system: SK-MEL-5 melanoma
SN12C renal = system: SN12C renal
TK-10 renal = system: TK-10 renal

| Compound | GI50 (A498 renal) [µM] | TGI (A498 renal) [µM] | GI50 (BT-549 breast) [µM] | TGI (BT-549 breast) [µM] | GI50 (COLO 205 colon) [µM] | TGI (COLO 205 colon) [µM] | GI50 (NCI/ADR-RES ovarian) [µM] | TGI (NCI/ADR-RES ovarian) [µM] | GI50 (SK-MEL-5 melanoma) [µM] | TGI (SK-MEL-5 melanoma) [µM] | GI50 (SN12C renal) [µM] | TGI (SN12C renal) [µM] | GI50 (TK-10 renal) [µM] | TGI (TK-10 renal) [µM] |
| --- | --- | --- | --- | --- | --- | --- | --- | --- | --- | --- | --- | --- | --- | --- |
| CN1CCN(Cc2cc(NC(=O)c3cccc(C#Cc4cccc5[nH]nc(N)c45)c3)cc(C(F)(F)F)c2)CC1 | 1.01 | 2.22 | 1.97 | 3.62 | 1.53 | 2.98 | 2.02 | 4.2 | 1.7 | 3.1 | 1.66 | 3.13 | 1.96 | 3.38 |
| Fc1ccc(Nc2nc3ccccc3c3occc23)cc1 |  |  | 15.6 | 28.9 | 3.3 | 12.9 | 2.48 | 13 | 16.5 | 30.1 | 12.9 | 27.2 | 2.06 | 6.67 |
| C=C1C(=O)O[C@H]2[C@H]1CC/C(COC(=O)NCCCCCCCCNC(=O)OC/C1=C/CC[C@@]3(C)O[C@H]3[C@H]3OC(=O)C(=C)[C@@H]3CC1)=C\CC[C@@]1(C)O[C@@H]21 | 1.69 | 3.14 | 0.257 | 0.748 | 0.3 | 0.756 | 3.91 | 18.7 | 1.21 | 2.59 | 0.264 | 0.849 | 0.284 | 0.855 |
| CN(C)CCOC(=O)Nc1nc2ccc(Sc3ccccc3)cc2[nH]1 | 2.62 | 10.6 | 3.2 | 13.5 | 2.16 | 5.19 | 2.44 | 9.65 | 3.31 | 12.5 | 5.23 | 27.5 | 11 | 25.5 |
| CN(C)c1ccc(N=C2C=CC(=O)c3ccccc32)cc1 | 12 | 25.2 | 7.49 | 20.5 | 2.06 | 4.15 | 3.95 | 72.6 | 1.34 | 2.72 | 2.54 | 9.28 | 17 | 31 |
| COc1cccc(Nc2nccc(-c3cnn4ncccc34)n2)c1 | 0.0483 | 0.126 | 0.0714 | 6.71 | 0.0433 | 0.0988 | 0.0679 |  | 0.0588 | 0.561 | 0.0837 | > 25 |  |  |
| Nc1c(F)cc(-c2nc3cc(F)ccc3[se]2)cc1Br | 5.4 | 36.9 | 0.334 | > 27.8 | 0.0536 | > 100 | 38.9 | > 100 | 0.104 | > 100 | 17.7 | > 100 | 0.17 | 0.61 |
| CCN(Cc1ccc(F)cc1)c1ccc(CO)c(OC)c1 | 0.331 | 1.37 | 7.7 | 32.7 | 13.4 | 29.7 | 17.6 | 55.5 | 11.9 | 24.9 | 21.9 | > 100 | 2.14 | 16.8 |
| CN1CCN(Cc2ccc(NC(=O)c3cncc(C#Cc4cnc(N)c5cnccc45)c3)cc2C(F)(F)F)CC1 | 0.12 | 0.363 | 1.08 | 7.23 | 0.0982 | 6 | 6.02 | 15.9 | 0.277 | 0.952 | 0.167 | 5.86 | 0.436 | 6.73 |
| O=[N+]([O-])c1ccc(Sc2ccncn2)c([N+](=O)[O-])c1 | 8.71 | 22.7 | 2.7 | 7.55 | 2.55 | 6.5 | 4.46 | 14.1 | 3.27 | 11.7 | 3.89 | 15.1 | 3.03 | 9.88 |
| COc1ccc2c(c1OC(C)=O)C1=CC(=O)CCC13CCNC3C2 (stereo unspecified) |  |  |  | > 100 |  | > 100 |  | > 100 |  | > 100 |  | > 100 |  | > 100 |
| Cc1nccc2c3ccc(OCc4cn(-c5ccc(Cl)cc5)nn4)cc3n(CC(C)C)c12 | 1.39 | 9.32 | 1.51 | 7.12 | 1.51 | 6.8 | 1.73 | 30.8 | 1.64 | 6.15 | 3.69 | > 33.3 | 6.89 | 19.5 |
| Cn1c2ccccc2c2c(=O)n(CCCC(=O)OC(=NC3CCCCC3)NC3CCCCC3)c3c(-c4ccccc4)nnn3c21 | 65.8 | > 100 | 72 | > 100 | > 100 | > 100 | 94.9 | > 100 | > 100 | > 100 | > 100 | > 100 | > 100 | > 100 |
| C[C@@H](Oc1cc(-n2cnc3ccc(OC[C@@H](O)CO)cc32)sc1C(N)=O)c1ccccc1Cl | 0.148 | 1.2 | 0.194 | 11.1 | 0.0743 | > 25 | 1.64 | > 25 | 0.326 | 5.14 | 1.08 | > 25 | 0.894 | 10.7 |
| Cc1ccc(S(=O)(=O)Nc2ccc(-c3cc(-c4cccc(F)c4)c(C#N)c(N)n3)cc2)cc1 | 3.7 | 16.2 | 1.35 | 2.78 | 2.18 | 4.48 | 2.92 | 10.8 | 1.77 | 3.23 | 2.2 | 7.11 | 1.66 | 3.17 |
| Cc1cc(Cl)cc(Cc2cc(Cl)cc(C)c2O)c1O | 3.05 | 14.1 | 2.46 | 7.02 | 5.72 | 18.8 | 2.07 | 5.95 | 1.71 | 3.61 | 2.27 | 9.7 | 3.97 | 12 |
